From PMC4540177 (Bioorganic & medicinal chemistry letters, 2013)

Tests used:
[1] = Rat pharmacokinetics; type: in vivo, Sprague-Dawley rats
[2] = Mouse brain penetration; type: in vivo, C57Bl6 mice

| Compound | half live (in words) ([1]; rat) | oral exposure (in words) ([1]; rat) | brain penetration (in words) [2] | in vivo properties (in words) ([1]; rat pk) |
| --- | --- | --- | --- | --- |
| Cc1ncn(-c2ccc(Nc3cc(-c4nocc4-c4cnn(C)c4)ccn3)cc2)n1 [Compound 27] | short half live | good oral exposure | poor brain penetration | – |
| Cc1ncn(-c2ccc(Nc3cc(-c4nocc4-c4cn[nH]c4C)ccn3)cc2)n1 [Compound 28] | – | – | – | poor in vivo properties |
